Reference: patent US8895752B2, “Alkylsulfonyl-substituted thiazolide compounds” (priority 2007, dated 2014)
Several values for one entry are separate records, joined by “and”; a condition that tells them apart may be missing. Equal entries are not always repeated. Where two headings read alike, the source gives them in different places.

What was measured:
HCV replication = assay: HCV replicon assay, 6 days total duration, NTZ monotherapy pre-treatment and combination therapy; assay type: cell-based; settings: Hepatitis C virus, 144 h, first named drug for combinations
Experimental: […] HCV replicon cell line, AVA5 (sub-genomic CON1, genotype 1b) (Blight et al., 2000) maintained as sub-confluent cultures on 96-well plates as previously described (Okuse et al., 2005). Antiviral activity was determined by blot hybridization analysis of intracellular HCV RNA (normalized to the level of cellular B-actin RNA in each culture sample) and cytotoxicity was assessed by neutral red dye uptake after 3 days of treatment. Additional studies were performed using Huh7 cells containing another HCV replicon, H/FL-Neo, a genotype 1a full length construct (Blight et al., 2003). For studies involving human serum, standard culture medium (which contains 10% fetal bovine serum) and assay conditions were maintained.
(§1) EC50, EC90 and CC50 values (±standard deviations [S.D.]) were calculated by linear regression analysis using data combined from all treated cultures (Korba and Gerin, 1992; Okuse et al., 2005). […] Selectivity index (S.I.) was calculated as CC50/EC90 for HBV assays and CC50/EC50 for HCV assays. EC90 values were used for calculation of the S.I. in HBV assays since at least a […] depression of HBV DNA levels is typically required to achieve statistical significance in this assay system (Korba and Gerin, 1992). For combination treatments, EC50, EC90, CC50 and S.I. are presented for the first compound listed. The molar ratio of the compounds in each combination is also indicated.

[1] = tested on: HCV replicon H/FL-Neo, genotype 1a full length; assay: HCV replicon assay in Huh7 cells containing H/FL-Neo; assay type: cell-based, Hepatitis C Virus; settings: Genotype 1a replicon
Experimental: (§2) Antiviral activity of test compounds was assessed in a 3-day assay using the stably-expressing HCV replicon cell line, AVA5 (sub-genomic CON1, genotype 1b) (Blight et al., 2000) maintained as sub-confluent cultures on 96-well plates as previously described (Okuse et al., 2005). Antiviral activity was determined by blot hybridization analysis of intracellular HCV RNA (normalized to the level of cellular B-actin RNA in each culture sample) and cytotoxicity was assessed by neutral red dye uptake after 3 days of treatment. Additional studies were performed using Huh7 cells containing another HCV replicon, H/FL-Neo, a genotype 1a full length construct (Blight et al., 2003). For studies involving human serum, standard culture medium (which contains 10% fetal bovine serum) and assay conditions were maintained.
as §1

[2] = Cytotoxicity by neutral red dye uptake in AVA5 cells; assay type: cell-based; settings: human, AVA5 cells (HCV replicon, sub-genomic CON1), Genotype 1b replicon
[3] = tested on: HCV replicon, sub-genomic CON1, genotype 1b; assay: 3-day HCV replicon assay in AVA5 cells (intracellular HCV RNA, blot hybridization); assay type: cell-based, Hepatitis C Virus; settings: for Selectivity Index / EC50 / EC90: Genotype 1b replicon; for Selectivity Index: CC50/EC50; for EC50 / EC90: Hepatitis C virus, Ava5, 72 h, 3 days, first compound listed for combinations
Experimental: as §2, §1

[4] = Cytotoxicity by neutral red dye uptake in Huh7 cells containing H/FL-Neo; assay type: cell-based; settings: human; Genotype 1a replicon
HBV = HBV antiviral assay in confluent 2.2.15 cell cultures (HBV DNA, quantitative blot hybridization); assay type: cell-based, Hepatitis B Virus
Experimental: EC50, EC90 and CC50 values (±standard deviations [S.D.]) were calculated by linear regression analysis using data combined from all treated cultures (Korba and Gerin, 1992; Okuse et al., 2005). […] Selectivity index (S.I.) was calculated as CC50/EC90 for HBV assays and CC50/EC50 for HCV assays. EC90 values were used for calculation of the S.I. in HBV assays since at least a 3-fold depression of HBV DNA levels is typically required to achieve statistical significance in this assay system (Korba and Gerin, 1992).

Wild-type HBV = assay: 5-day transient transfection assay in Huh7 cells, intracellular HBV RI by Southern blot; assay type: cell-based, Hepatitis B Virus; settings: Wild-type, Huh7 transient transfection
HBV Mutant M204I = assay: as above; assay type: cell-based, Hepatitis B Virus; settings: M204I
Experimental: (§3) Activity against LMV-resistant (Allen et al., 1998) and ADV-resistant (Angus et al., 2003) HBV mutants was performed in a 5-day assay using a transient transfection method as previously described (Iyer et al., 2004). Antiviral activity was determined by quantitative Southern blot hybridization of intracellular HBV DNA replication intermediates (HBV RI).

HBV Mutant M204V = assay: as above; assay type: cell-based, Hepatitis B Virus; settings: M204V
Experimental: as §3

HBV Mutant N236T = assay: as above; assay type: cell-based, Hepatitis B Virus; settings: N236T
Experimental: as §3

HBV Mutant L180M = assay: as above; assay type: cell-based, Hepatitis B Virus; settings: L180M
Experimental: as §3

HBV Mutant L180M/M204V = assay: as above; assay type: cell-based, Hepatitis B Virus; settings: L180M/M204V
Experimental: as §3

2.2.15 cells = assay: Cytotoxicity by neutral red dye uptake in 2.2.15 cells; settings: confluent 2.2.15 cultures, nine daily doses, neutral red uptake
Experimental: (§4) HBV antiviral assays were conducted as previous described (Korba and Gerin, 1992).
as §1

[5] = Primary HCV replicon cell assay, cytotoxicity; settings: human, HCV replicon cells (primary assay), CC50, primary assay
Experimental: as §2, §1

[6] = tested on: HCV replicon cells, genotype 1A; assay: Secondary HCV replicon cell assay, genotype 1A, cytotoxicity; assay type: cell-based
From the text: (§5) Table 10 presents data from the secondary HCV replicon cell assays using genotypes 1B and 1A.

[7] = tested on: HCV replicon cells, genotype 1B; assay: Secondary HCV replicon cell assay, genotype 1B, cytotoxicity; assay type: cell-based
From the text: as §5

HCV replicon genotype 1A = assay: Secondary HCV replicon cell assay, genotype 1A; assay type: cell-based, Hepatitis C Virus
From the text: as §5

HCV replicon genotype 1B = assay: Secondary HCV replicon cell assay, genotype 1B; assay type: cell-based, Hepatitis C Virus
From the text: as §5

HCV replicon = assay: Primary HCV replicon cell assay; assay type: cell-based, Hepatitis C Virus; settings: Hepatitis C virus
Experimental: as §2, §1

[8] = Cytotoxicity by neutral red dye uptake in 2.2.15 cells; settings: human
Experimental: as §4, §1

Work on `CSc1cnc(NC(=O)c2ccccc2O)s1` yielded a melting point of 225 to 226 °C.

For `CCCCSc1cnc(NC(=O)c2ccccc2OC(C)=O)s1`, the melting point was 100 to 101 °C.

`CCCCSc1cnc(NC(=O)c2ccccc2O)s1` showed a melting point of 180 to 181 °C.

For `CCCCS(=O)(=O)c1cnc(NC(=O)c2ccccc2O)s1`, the melting point was 235 to 236 °C.

With `CSc1cnc(NC(=O)c2ccc(OC(C)=O)cc2)s1` the melting point was 193.3 to 195.5 °C and 193.5 to 195.5 °C.

In the case of `CSc1cnc(NC(=O)c2cccc(OC(C)=O)c2)s1`, the melting point is reported as 135.2 to 136.2 °C.

In the case of `C[C@@]1(O)[C@H](O)[C@@H](CO)O[C@H]1n1ccc(N)nc1=O` [2′CmeC, 2′-C-methyl cytidine], the EC50 (HCV replication) is reported as 1.3 ± 0.2 µM, the EC90 (HCV replication) is reported as 5.8 ± 0.9 µM and the “Selectivity Index” value ([1]; CC50/EC50) is reported as >167. The EC50 ([1]; Hepatitis C virus, Huh-7) was 1.8 ± 0.2 µM, the EC90 ([1]; Hepatitis C virus, Huh-7) was 8.1 ± 0.8 µM and the CC50 at 3 days [2] was > 300 µM. The “Selectivity Index” value [3] was >188, the EC50 [3] was 1.6 ± 0.2 µM and the EC90 [3] was 8.3 ± 0.7 µM. The CC50 at 3 days [4] was > 300 µM.

`CC(C)(C)C(=O)OCOP(=O)(COCCn1cnc2c(N)ncnc21)OCOC(=O)C(C)(C)C` [ADV, adefovir dipovoxil] gave an EC50 (HBV; 2.2.15 cells, nine daily doses, read-out: Extracellular virion DNA EC50) of 1 ± 0.2 µM, an EC90 (HBV; 2.2.15 cells, nine daily doses, read-out: Extracellular virion DNA EC90) of 3 ± 0.3 µM and an EC90 (Wild-type HBV) of 7 ± 0.8 µM. For the same compound, the EC50 (Wild-type HBV; read-out: EC50) was 2 ± 0.2 µM, the EC50 (HBV Mutant M204I; read-out: EC50) was 2.5 ± 0.3 µM and the EC90 (HBV Mutant M204I; read-out: EC90) was 8.5 ± 1 µM. It also gave an EC50 (HBV Mutant M204V; read-out: EC50) of 1.5 ± 0.2 µM, an EC90 (HBV Mutant M204V; read-out: EC90) of 7.2 ± 0.8 µM and an EC50 (HBV Mutant N236T; read-out: EC50) of 11 ± 1.3 µM. The EC90 (HBV Mutant N236T; read-out: EC90) was 32 ± 3.6 µM, the EC50 (HBV Mutant L180M; read-out: EC50) was 2.6 ± 0.3 µM and the EC90 (HBV Mutant L180M; read-out: EC90) was 7.3 ± 0.8 µM. The EC50 (HBV Mutant L180M/M204V; read-out: EC50) was 2.5 ± 0.3 µM, the EC90 (HBV Mutant L180M/M204V; read-out: EC90) was 7.6 ± 0.8 µM and the CC50 (2.2.15 cells) was > 300 µM.

For `CS(=O)(=O)c1cnc(NC(=O)c2ccccc2O)s1` [Compound 6, 2-hydroxy-N-(5-(methylsulfonyl)thiazol-2-yl)benzamide], the EC50 (HBV; Hepatitis B virus, read-out: Intracellular HBV RI EC50) was > 10 µM, the EC50 (HBV; Hepatitis B virus, 2.2.15 cells, nine daily doses, read-out: Extracellular virion DNA EC50) was > 10 µM and the EC90 (HBV; Hepatitis B virus, 2.2.15 cells, nine daily doses, read-out: Extracellular virion DNA EC90) was > 10 µM. The EC90 (HBV; Hepatitis B virus, 2.2.15 cells, nine daily doses, read-out: Intracellular HBV RI EC90) was > 10 µM, the CC50 at 3 days [5] was 43 µM and the CC50 [6] was > 10 µM. For the same compound, the CC50 [7] was > 10 µM, the EC50 (HCV replicon genotype 1A) was 0.8 µM and the EC90 (HCV replicon genotype 1A) was 3.4 µM. It also gave a CC50 at 3 days [2] of 2.8 ± 0.3 µM, an EC50 (HCV replicon genotype 1B) of 0.89 µM and an EC90 (HCV replicon genotype 1B; Hepatitis C virus) of 8.8 µM. For the same compound, the EC50 (HCV replicon) was 1.5 µM, the EC90 (HCV replicon) was 5.2 µM and the “Selectivity Index” value [3] was 74. The EC50 [3] was 0.04 ± 0.005 µM, the EC90 [3] was 0.59 ± 0.07 µM and the “activity against HCV” value ([3]; among the other thiazolides) was “exhibited activity”. For the same compound, the CC50 at 9 days [8] was > 100 µM.
